# Results taken from patent EP1976513B1 (priority 2006, dated 2007).
# Where two headings read alike, the source gives them in different places.
# Key:
# Rats [1] = test: Rat locomotor activity; format: in vivo; details: PO
# Experimental: (§1) In order to ensure effects of the compounds on immobility time were not related to a general stimulant effect on baseline motor activity, locomotor activity was assessed using photocell monitored cages (Med-Associates Inc.). Each test chamber was equipped with infrared photocell beams to measure movement of the animals. Horizontal and vertical activity were measured
# (§2) Rats or mice were pretreated with vehicle or test compounds and placed back in home cage, following which they will be individually placed in locomotor cages and activity was monitored in 5 minute intervals for up to 60 min.
# (§3) Data were analyzed by one way analysis of variance (ANOVA) followed by post-hoc comparisons where appropriate. An effect was considered significant if p < 0.05. Data are represented as the mean and standard error to the mean (s.e.m).
# Rats [2] = test: Rat forced swim test; format: in vivo; details: PO, 24 hours and 30-60 minutes before the 5 minute test
# mice [3] = test: Mouse locomotor activity; format: in vivo; details: PO
# Experimental: as §1, §2, §3
# mice [4] = test: Mouse tail suspension test; format: in vivo; details: PO, 30-60 minutes before the test, 5 minutes recording
# [5] = target: T1, 5-HT Transporter (SERT) Sites in Mouse Brain (Mus musculus, UniProt Q60857); test: Ex vivo [3H] citalopram binding after oral dosing; design: species or system C57BL/6 mice; details: for % Transporter Occupancy, SERT: 60 minutes after treatment, vs vehicle; for Mean Specific Binding (dpm) ± S.E.M., SERT: mice sacrificed 60 minutes after treatment, cortex
# T1 construct: Whole brains were removed and cortex and striata dissected out; from tissue; host or cells: C57BL/6 mouse frontal cortex homogenate
# T1 sequence (Q60857 whole entry): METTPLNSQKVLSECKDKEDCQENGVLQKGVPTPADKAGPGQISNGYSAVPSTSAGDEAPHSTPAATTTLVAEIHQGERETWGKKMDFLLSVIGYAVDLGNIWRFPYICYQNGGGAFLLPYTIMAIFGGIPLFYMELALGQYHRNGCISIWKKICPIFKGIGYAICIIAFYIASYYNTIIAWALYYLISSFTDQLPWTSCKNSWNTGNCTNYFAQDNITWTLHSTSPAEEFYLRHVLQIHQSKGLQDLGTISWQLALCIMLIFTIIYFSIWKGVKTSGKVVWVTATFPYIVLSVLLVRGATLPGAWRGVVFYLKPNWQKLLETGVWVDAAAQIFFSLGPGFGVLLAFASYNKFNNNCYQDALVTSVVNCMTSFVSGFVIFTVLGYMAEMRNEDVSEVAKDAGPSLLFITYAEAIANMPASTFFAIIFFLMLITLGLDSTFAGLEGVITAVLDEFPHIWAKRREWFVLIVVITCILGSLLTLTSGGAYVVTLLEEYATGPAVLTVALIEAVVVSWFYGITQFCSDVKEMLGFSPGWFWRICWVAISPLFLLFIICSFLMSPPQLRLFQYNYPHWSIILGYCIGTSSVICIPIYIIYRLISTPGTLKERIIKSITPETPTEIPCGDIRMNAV
# [6] = target: Norepinephrine Transporter (NET) Sites in Mouse Brain (Mus musculus, UniProt O55192); details: PO; for % Transporter Occupancy, NET: 60 minutes after treatment, vs vehicle; for Mean Specific Binding (dpm) ± S.E.M., NET: mice sacrificed 60 minutes after treatment, cortex
# Sequence of Norepinephrine Transporter (NET) Sites in Mouse Brain (O55192 whole entry): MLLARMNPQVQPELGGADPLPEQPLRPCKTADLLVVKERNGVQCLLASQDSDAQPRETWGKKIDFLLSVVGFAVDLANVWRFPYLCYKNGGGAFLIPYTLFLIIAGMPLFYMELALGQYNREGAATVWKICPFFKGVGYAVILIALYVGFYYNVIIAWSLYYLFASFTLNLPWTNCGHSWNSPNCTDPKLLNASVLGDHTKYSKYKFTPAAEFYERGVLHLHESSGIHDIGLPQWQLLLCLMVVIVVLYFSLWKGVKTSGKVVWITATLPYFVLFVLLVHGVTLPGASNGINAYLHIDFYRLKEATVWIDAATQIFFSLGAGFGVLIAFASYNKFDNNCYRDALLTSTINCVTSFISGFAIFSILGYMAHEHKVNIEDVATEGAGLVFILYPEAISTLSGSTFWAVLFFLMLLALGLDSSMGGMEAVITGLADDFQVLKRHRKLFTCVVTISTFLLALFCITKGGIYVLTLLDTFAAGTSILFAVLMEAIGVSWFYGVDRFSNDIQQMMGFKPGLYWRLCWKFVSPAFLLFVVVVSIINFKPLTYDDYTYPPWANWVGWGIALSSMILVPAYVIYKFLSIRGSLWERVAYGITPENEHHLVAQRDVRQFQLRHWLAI
# [7] = target: human serotonin reuptake transporter (Homo sapiens, UniProt P31645); test: cell-based; details: recombinant human serotonin transporter (SERT); read-out: Human IC50 (nM) hSERT
# Sequence of human serotonin reuptake transporter (P31645 whole entry): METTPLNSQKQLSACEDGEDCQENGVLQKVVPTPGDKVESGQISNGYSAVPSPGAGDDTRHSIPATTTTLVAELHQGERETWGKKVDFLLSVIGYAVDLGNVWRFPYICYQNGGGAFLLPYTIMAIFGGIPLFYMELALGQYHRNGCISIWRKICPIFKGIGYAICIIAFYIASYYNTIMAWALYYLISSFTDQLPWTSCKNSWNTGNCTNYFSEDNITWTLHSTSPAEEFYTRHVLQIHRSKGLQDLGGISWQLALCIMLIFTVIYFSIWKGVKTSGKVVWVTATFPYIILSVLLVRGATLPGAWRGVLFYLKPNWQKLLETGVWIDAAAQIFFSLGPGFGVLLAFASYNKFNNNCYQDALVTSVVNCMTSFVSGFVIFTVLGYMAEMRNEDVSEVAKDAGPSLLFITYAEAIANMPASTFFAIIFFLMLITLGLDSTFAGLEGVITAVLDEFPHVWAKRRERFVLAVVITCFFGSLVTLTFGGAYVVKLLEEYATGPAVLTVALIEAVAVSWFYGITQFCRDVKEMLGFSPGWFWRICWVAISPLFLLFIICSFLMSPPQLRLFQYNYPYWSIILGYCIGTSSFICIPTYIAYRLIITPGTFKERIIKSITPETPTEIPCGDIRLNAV
# [8] = target: T2, DA Transporter (DAT) Sites in Mouse Brain (Mus musculus, UniProt Q61327); test: Ex vivo [3H] WIN 35428 binding after oral dosing; design: species or system C57BL/6 mice; details: for % Transporter Occupancy, DAT: 60 minutes after treatment, vs vehicle; for Mean Specific Binding (dpm) ± S.E.M., DAT: mice sacrificed 60 minutes after treatment, striatum
# T2 construct: Striatum was used to determine occupancy of DA transporter sites; from tissue; host or cells: C57BL/6 mouse striatum homogenate
# T2 sequence (Q61327 whole entry): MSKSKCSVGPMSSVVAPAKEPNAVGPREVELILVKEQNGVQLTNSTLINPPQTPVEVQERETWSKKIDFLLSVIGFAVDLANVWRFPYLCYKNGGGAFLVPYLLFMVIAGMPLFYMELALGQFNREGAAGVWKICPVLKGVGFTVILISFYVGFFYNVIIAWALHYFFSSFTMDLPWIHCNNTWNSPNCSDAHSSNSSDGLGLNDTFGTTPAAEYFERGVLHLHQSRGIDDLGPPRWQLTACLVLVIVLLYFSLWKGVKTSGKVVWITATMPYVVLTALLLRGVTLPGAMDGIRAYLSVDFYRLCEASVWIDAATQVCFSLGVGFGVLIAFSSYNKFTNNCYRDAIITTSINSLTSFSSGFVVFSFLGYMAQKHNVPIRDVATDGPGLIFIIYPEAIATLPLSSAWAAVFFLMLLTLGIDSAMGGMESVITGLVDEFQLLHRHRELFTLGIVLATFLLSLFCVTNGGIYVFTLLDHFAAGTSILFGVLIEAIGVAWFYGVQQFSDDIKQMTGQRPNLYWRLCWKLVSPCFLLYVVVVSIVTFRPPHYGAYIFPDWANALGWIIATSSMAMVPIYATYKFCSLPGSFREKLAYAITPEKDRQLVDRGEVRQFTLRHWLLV
# [9] = target: T3, human dopamine reuptake transporter (Homo sapiens, UniProt Q01959); test: cell-based; details: recombinant human dopamine transporter (DAT); read-out: Human IC50 (nM) hDAT
# T3 construct: expressed in transfected cells; host or cells: CHO-K1 or HEK293
# T3 sequence (Q01959 whole entry): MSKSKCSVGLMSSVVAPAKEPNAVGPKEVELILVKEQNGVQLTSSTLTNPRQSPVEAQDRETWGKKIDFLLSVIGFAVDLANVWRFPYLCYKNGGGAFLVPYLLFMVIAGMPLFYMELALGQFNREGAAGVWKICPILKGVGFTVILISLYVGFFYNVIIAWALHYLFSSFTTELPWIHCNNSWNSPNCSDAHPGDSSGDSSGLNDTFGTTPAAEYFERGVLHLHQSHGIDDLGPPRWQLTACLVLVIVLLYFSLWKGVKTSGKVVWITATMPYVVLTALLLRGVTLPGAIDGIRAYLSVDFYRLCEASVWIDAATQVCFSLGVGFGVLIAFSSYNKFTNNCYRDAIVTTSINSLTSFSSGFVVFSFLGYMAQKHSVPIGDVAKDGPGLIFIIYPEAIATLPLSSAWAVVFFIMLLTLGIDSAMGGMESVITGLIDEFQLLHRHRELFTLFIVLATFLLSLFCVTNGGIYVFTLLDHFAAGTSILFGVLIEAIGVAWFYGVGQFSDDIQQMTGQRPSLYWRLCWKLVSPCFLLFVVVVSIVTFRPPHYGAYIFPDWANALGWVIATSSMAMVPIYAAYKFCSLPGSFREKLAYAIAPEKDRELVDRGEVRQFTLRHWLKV
smiles,measurement,setting,value
"CN(C)CC1(c2ccc(Cl)c(Cl)c2)CCCCC1O (single isomer, unassigned) [153 E2, trans-2-(3,4-dichlorophenyl)-2-((dimethylamino)methyl)cyclohexanol]",Rat Locomotor Activity Total Distance Traveled ± S.E.M.,Rats [1]; 3 mg/kg,1577.8 ± 80.1
same,Rat Locomotor Activity Total Distance Traveled ± S.E.M.,Rats [1]; 10 mg/kg,1994.2 ± 263.9
same,Rat Locomotor Activity Total Distance Traveled ± S.E.M.,Rats [1]; 30 mg/kg,2033.7 ± 215.4
same,Rat Forced Swim (Means ± S.E.M.) Climbing,Rats [2]; 3 mg/kg,8.8 ± 1.5
same,Rat Forced Swim (Means ± S.E.M.) Immobility,Rats [2]; 3 mg/kg,49.9 ± 1.7
same,Rat Forced Swim (Means ± S.E.M.) Swimming,Rats [2]; 3 mg/kg,1.9 ± 0.8
same,Rat Forced Swim (Means ± S.E.M.) Climbing,Rats [2]; 10 mg/kg,11.7 ± 1.8
same,Rat Forced Swim (Means ± S.E.M.) Immobility,Rats [2]; 10 mg/kg,44.0 ± 2.1
same,Rat Forced Swim (Means ± S.E.M.) Swimming,Rats [2]; 10 mg/kg,4.3 ± 1.1
same,Rat Forced Swim (Means ± S.E.M.) Climbing,Rats [2]; 30 mg/kg,22.2 ± 5.2
same,Rat Forced Swim (Means ± S.E.M.) Immobility,Rats [2]; 30 mg/kg,31.3 ± 6.7
same,Rat Forced Swim (Means ± S.E.M.) Swimming,Rats [2]; 30 mg/kg,4.6 ± 1.3
same,Mouse Locomotor Activity Total Distance Traveled ± S.E.M.,mice [3]; 3 mg/kg,625.5 ± 88.8
same,Mouse Locomotor Activity Total Distance Traveled ± S.E.M.,mice [3]; 10 mg/kg,519.5 ± 88.4
same,Mouse Locomotor Activity Total Distance Traveled ± S.E.M.,mice [3]; 30 mg/kg,573.7 ± 63.6
"CCC(N)C1(c2ccc(Cl)c(Cl)c2)CCCCC1 (single isomer, unassigned) [17 E1, 1-(1-(3,4-dichlorophenyl)cyclohexyl)propan-1-amine]",Mouse Tail Suspension Mean Immobility Time ± S.E.M.,mice [4]; 3 mg/kg,184.7 ± 9.0
same,Mouse Tail Suspension Mean Immobility Time ± S.E.M.,mice [4]; 10 mg/kg,182.6 ± 4.1
same,Mouse Tail Suspension Mean Immobility Time ± S.E.M.,mice [4]; 30 mg/kg,150.9 ± 7.8
same,Mouse Locomotor Activity Total Distance Traveled ± S.E.M.,mice [3]; 3 mg/kg,649.3 ± 78.4
same,Mouse Locomotor Activity Total Distance Traveled ± S.E.M.,mice [3]; 10 mg/kg,478.3 ± 88.5
same,Mouse Locomotor Activity Total Distance Traveled ± S.E.M.,mice [3]; 30 mg/kg,428.3 ± 120.6
"CNC(C)C1(c2ccc(Cl)c(Cl)c2)CCCCC1 (single isomer, unassigned) [44 E1, 1-(1-(3,4-dichlorophenyl)cyclohexyl)-N-methylethanamine]",Mouse Tail Suspension Mean Immobility Time ± S.E.M.,mice [4]; 3 mg/kg,188.9 ± 7.3
same,Mouse Tail Suspension Mean Immobility Time ± S.E.M.,mice [4]; 10 mg/kg,174.5 ± 8.1
same,Mouse Tail Suspension Mean Immobility Time ± S.E.M.,mice [4]; 30 mg/kg,120.4 ± 9.0
same,Mouse Locomotor Activity Total Distance Traveled ± S.E.M.,mice [3]; 3 mg/kg,576.5 ± 66.9
same,Mouse Locomotor Activity Total Distance Traveled ± S.E.M.,mice [3]; 10 mg/kg,721.1 ± 36.5
same,Mouse Locomotor Activity Total Distance Traveled ± S.E.M.,mice [3]; 30 mg/kg,402.3 ± 71.0
"CNCC1(c2ccc3ccccc3c2)CCCCC1 [Compound 93, N-methyl-1-(1-(naphthalen-2-yl)cyclohexyl)methanamine]",Rat Locomotor Activity Total Distance Traveled ± S.E.M.,Rats [1]; 3 mg/kg,1802.6 ± 150.6
same,Rat Locomotor Activity Total Distance Traveled ± S.E.M.,Rats [1]; 10 mg/kg,1641.0 ± 144.5
same,Rat Locomotor Activity Total Distance Traveled ± S.E.M.,Rats [1]; 30 mg/kg,2095.6 ± 147.2
same,Rat Forced Swim (Means ± S.E.M.) Climbing,Rats [2]; 3 mg/kg,9.0 ± 1.3
same,Rat Forced Swim (Means ± S.E.M.) Immobility,Rats [2]; 3 mg/kg,44.5 ± 2.5
same,Rat Forced Swim (Means ± S.E.M.) Swimming,Rats [2]; 3 mg/kg,6.5 ± 1.6
same,Rat Forced Swim (Means ± S.E.M.) Climbing,Rats [2]; 10 mg/kg,12.8 ± 2.2
same,Rat Forced Swim (Means ± S.E.M.) Immobility,Rats [2]; 10 mg/kg,41.4 ± 2.8
same,Rat Forced Swim (Means ± S.E.M.) Swimming,Rats [2]; 10 mg/kg,6.9 ± 1.3
same,Rat Forced Swim (Means ± S.E.M.) Climbing,Rats [2]; 30 mg/kg,22.2 ± 3.5
same,Rat Forced Swim (Means ± S.E.M.) Immobility,Rats [2]; 30 mg/kg,25.8 ± 5.4
same,Rat Forced Swim (Means ± S.E.M.) Swimming,Rats [2]; 30 mg/kg,12.0 ± 2.1
same,Mouse Tail Suspension Mean Immobility Time ± S.E.M.,mice [4]; 3 mg/kg,203.5 ± 8.0
same,Mouse Tail Suspension Mean Immobility Time ± S.E.M.,mice [4]; 10 mg/kg,185.4 ± 7.9
same,Mouse Tail Suspension Mean Immobility Time ± S.E.M.,mice [4]; 30 mg/kg,162.0 ± 8.1
same,Mouse Locomotor Activity Total Distance Traveled ± S.E.M.,mice [3]; 3 mg/kg,644.0 ± 55.7
same,Mouse Locomotor Activity Total Distance Traveled ± S.E.M.,mice [3]; 10 mg/kg,606.9 ± 72.4
same,Mouse Locomotor Activity Total Distance Traveled ± S.E.M.,mice [3]; 30 mg/kg,737.6 ± 89.5
"CN(C)CC1(c2ccc3ccccc3c2)CCCCC1O (single isomer, unassigned) [164 E1, trans-2-((dimethylamino)methyl)-2-(naphthalen-2-yl)cyclohexanol]",Mouse Tail Suspension Mean Immobility Time ± S.E.M.,mice [4]; 3 mg/kg,183.8 ± 6.5
same,Mouse Tail Suspension Mean Immobility Time ± S.E.M.,mice [4]; 10 mg/kg,162.1 ± 4.6
same,Mouse Tail Suspension Mean Immobility Time ± S.E.M.,mice [4]; 30 mg/kg,155.3 ± 7.8
same,Mouse Locomotor Activity Total Distance Traveled ± S.E.M.,mice [3]; 3 mg/kg,377.8 ± 67.6
same,Mouse Locomotor Activity Total Distance Traveled ± S.E.M.,mice [3]; 10 mg/kg,210.3 ± 40.4
same,Mouse Locomotor Activity Total Distance Traveled ± S.E.M.,mice [3]; 30 mg/kg,494.0 ± 84.9
"CNCC1(c2ccc(Cl)c(Cl)c2)CCC(C)(O)CC1 (stereo not shown) [Compound 276, 4-(3,4-dichlorophenyl)-1-methyl-4-((methylamino)methyl)cyclohexanol]","% Transporter Occupancy, SERT",[5]; 1 mg/kg,12%
same,"Mean Specific Binding (dpm) ± S.E.M., SERT",[5]; 1 mg/kg,3743 ± 199 dpm
same,"% Transporter Occupancy, SERT",[5]; 3 mg/kg,14%
same,"Mean Specific Binding (dpm) ± S.E.M., SERT",[5]; 3 mg/kg,3685 ± 292 dpm
same,"% Transporter Occupancy, SERT",[5]; 10 mg/kg,28%
same,"Mean Specific Binding (dpm) ± S.E.M., SERT",[5]; 10 mg/kg,3092 ± 207 dpm
same,"% Transporter Occupancy, SERT",[5]; 30 mg/kg,64%
same,"Mean Specific Binding (dpm) ± S.E.M., SERT",[5]; 30 mg/kg,1558 ± 169 dpm
same,"% Transporter Occupancy, NET",[6]; 1 mg/kg,-4%
same,"Mean Specific Binding (dpm) ± S.E.M., NET",[6]; 1 mg/kg,1602 ± 51 dpm
same,"% Transporter Occupancy, NET",[6]; 3 mg/kg,-6%
same,"Mean Specific Binding (dpm) ± S.E.M., NET",[6]; 3 mg/kg,1631 ± 92 dpm
same,"% Transporter Occupancy, NET",[6]; 10 mg/kg,-1%
same,"Mean Specific Binding (dpm) ± S.E.M., NET",[6]; 10 mg/kg,1553 ± 27 dpm
same,"% Transporter Occupancy, NET",[6]; 30 mg/kg,26%
same,"Mean Specific Binding (dpm) ± S.E.M., NET",[6]; 30 mg/kg,1138 ± 59 dpm
same,Mouse Locomotor Activity Total Distance Traveled ± S.E.M.,mice [3]; 3 mg/kg,625.9 ± 47.5
same,Mouse Locomotor Activity Total Distance Traveled ± S.E.M.,mice [3]; 10 mg/kg,382.4 ± 63.4
same,Mouse Locomotor Activity Total Distance Traveled ± S.E.M.,mice [3]; 30 mg/kg,607.8 ± 57.8
same,IC50,[7],210 nM
same,"% Transporter Occupancy, DAT",[8]; 1 mg/kg,-21%
same,"% Transporter Occupancy, DAT",[8]; 3 mg/kg,-9%
same,"Mean Specific Binding (dpm) ± S.E.M., DAT",[8]; 3 mg/kg,16312 ± 2396 dpm
same,"% Transporter Occupancy, DAT",[8]; 10 mg/kg,-6%
same,"Mean Specific Binding (dpm) ± S.E.M., DAT",[8]; 10 mg/kg,15879 ± 2265 dpm
same,"% Transporter Occupancy, DAT",[8]; 30 mg/kg,31%
same,"Mean Specific Binding (dpm) ± S.E.M., DAT",[8]; 30 mg/kg,10397 ± 931 dpm
"CN(C)CC1(c2ccc3ccccc3c2)CCCCC1O (single isomer, unassigned) [164 E2, trans-2-((dimethylamino)methyl)-2-(naphthalen-2-yl)cyclohexanol]",Mouse Tail Suspension Mean Immobility Time ± S.E.M.,mice [4]; 3 mg/kg,181.8 ± 6.3
same,Mouse Tail Suspension Mean Immobility Time ± S.E.M.,mice [4]; 10 mg/kg,179.1 ± 4.5
same,Mouse Tail Suspension Mean Immobility Time ± S.E.M.,mice [4]; 30 mg/kg,141.8 ± 6.0
same,Mouse Locomotor Activity Total Distance Traveled ± S.E.M.,mice [3]; 3 mg/kg,518.2 ± 106.1
same,Mouse Locomotor Activity Total Distance Traveled ± S.E.M.,mice [3]; 10 mg/kg,464.5 ± 86.2
same,Mouse Locomotor Activity Total Distance Traveled ± S.E.M.,mice [3]; 30 mg/kg,669.9 ± 75.6
"NCC1(c2ccc3ccccc3c2)CCC(F)CC1 (stereo not shown) [Compound 212, (4-fluoro-1-(naphthalen-2-yl)cyclohexyl)methanamine]",IC50,[9],75 nM
same,IC50,[7],91 nM
"CC(N(C)C)C1(c2cccc3ccccc23)CCCCC1 (single isomer, unassigned) [60 E2, N,N-dimethyl-1-(1-(naphthalen-1-yl)cyclohexyl)ethanamine]",IC50,[9],6740 nM
same,IC50,[7],4630 nM
